From the supplement of paper PMC10290057

test system: HCT116; test: efficacy (fitted maximal change in viability relative to DMSO control); higher = less cytotoxic (negative = loss of viability); settings: 48 h
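Further: Luminescence-based viability readout, five doses per compound, normalized against on-plate DMSO and empty-well controls, followed by dose-response curve fitting for every drug.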

**Q.** For OC[C@H]1O[C@@H](O[C@@H]2[C@@H](CO)OC(O)(CO)[C@H]2O)[C@H](O)[C@@H](O)[C@H]1O (mixture of isomers) [Lactulose], which efficacy is on record?
**A.** 9%

**Q.** How did the efficacy turn out when CC[S+](=O)([O-])N1CCC([C@@H](C)n2c(C)c(/C(O)=N/Cc3c(OC)cc(C)nc3O)c3ccccc32)CC1 (racemic) [CPI-169 racemate] was run?
**A.** -16.2%

**Q.** With CN1CCN(C)C(=O)C1C2=CC=C(N/C3=N/C(=C\N(C)C3=O)C4=C(C)C(=CC=C4)NC(=O)C5=CC6=C(CCCC6)S5)C=C2 (racemic) [GDC-0834 racemate] as the compound, how does the efficacy read?
**A.** -21.2%

**Q.** OC[C@H]1OC(O)C[C@@H](O)[C@@H]1O (some centres undefined) [2-Deoxyglucose] was tested. Which efficacy did it give?
**A.** -11.9%

**Q.** With N=C1N[C@H]2[C@H](CS[C@H]2CCCCC(=O)O)N1 [2-Iminobiotin] as the compound, how does the efficacy read?
**A.** 16%

**Q.** With O=C(O)CCCc1c[nH]c2ccccc12 [3-indolebutyric acid] as the compound, how does the efficacy read?
**A.** 15%

**Q.** With Nc1ncnc2ccccc12 [4-Quinazolinamine] as the compound, how does the efficacy read?
**A.** -11.9%

**Q.** With N[C@@H](Cc1c[nH]c2ccc(O)cc12)C(=O)O [5-Hydroxytryptophan] as the compound, how does the efficacy read?
**A.** -7.82%

**Q.** With Nc1ncnc2c1nc(Cl)n2[C@@H]1O[C@H](CO)[C@@H](O)[C@H]1O [8-Cl-Ado] as the compound, how does the efficacy read?
**A.** -73.3%

**Q.** For CC(=O)O[C@@]12CO[C@@H]1C[C@H](O)[C@]3(C)[C@@H]2[C@H](OC(=O)C4=CC=CC=C4)[C@]5(O)C[C@H](O)/C(=C(/[C@@H](O)C3=O)C5(C)C)C [10-Deacetylbaccatin], which efficacy is on record?
**A.** -50.2%

**Q.** With CCC(=O)O[C@@]1(CC[C@H]2[C@@H]3CCC/4=C/C(=O)CC[C@]4(C)[C@H]3CC[C@]12C)C(=O)CO [17 alpha-propionate] as the compound, how does the efficacy read?
**A.** -15.6%

**Q.** For CC(C)[C@H]1C(=O)N[C@H](CO)Cc2c[nH]c3cccc(c23)N1C [(-)-Indolactam V], which efficacy is on record?
**A.** 9.83%

**Q.** Which efficacy does the source give for O=C([C@@H](Cc1cccc(C(F)(F)F)c1)N[S+](=O)([O-])c1cc(F)c2c(c1)CCNC2)N1CCCC1 [(R)-PFI-2] here?
**A.** -23.9%

**Q.** How did the efficacy turn out when O=C1c2c(O)cc(O)cc2O[C@H](c2ccc(O)c(O)c2)[C@H]1O [(▒)-Taxifolin] was run?
**A.** 4.75%

**Q.** For Cc1cccc(-c2nn(C(=S)Nc3ccccc3)cc2-c2ccnc3ccccc23)n1 [A-83-01], which efficacy is on record?
**A.** -22.3%

**Q.** For Clc1cc2c(NC3CCCC3)nnc(-c3ccncc3)c2cc1Cl [A-196], which efficacy is on record?
**A.** 14.4%

**Q.** COC1=CC2=C(C=C1OCCCN3CCCC3)\N=C(N)/C24CCC4 [A-366] was tested. Which efficacy did it give?
**A.** 8%

**Q.** For CC(=O)NCCCS(=O)(=O)[O-] [ACAMPROSATE CALCIUM], which efficacy is on record?
**A.** 8.04%

**Q.** Which efficacy does the source give for COCc1c(-c2ccc(NC(=O)Nc3cc(C(F)(F)F)ccc3F)c(F)c2)c2c(N)ncnn2c1CN1CCOCC1 [ACTB-1003] here?
**A.** -76%

**Q.** With N#Cc1ccnc(N2C(=O)CC[C@H]2C(=O)N(c2cncc(F)c2)C(C(=O)NC2CC(F)(F)C2)c2ccccc2Cl)c1 (some centres undefined) [AG-120] as the compound, how does the efficacy read?
**A.** -22.2%

**Q.** With C[C@H](Nc1nc(N[C@H](C)C(F)(F)F)nc(-c2cccc(Cl)n2)n1)C(F)(F)F [AG-881] as the compound, how does the efficacy read?
**A.** -28.1%

**Q.** Cc1ccccc1C(C(=O)NC1CCCCC1)N(C(=O)Cn1ccnc1C)c1cccc(F)c1 (centres undefined) [AGI-5198] was tested. Which efficacy did it give?
**A.** -18.4%

**Q.** With c1ccc(CNCc2ccc(CN3CCCNCCNCCCNCC3)cc2)nc1 [AMD-3465] as the compound, how does the efficacy read?
**A.** -13.1%

**Q.** How did the efficacy turn out when CN1N(C2=CC=CC=C2)C(=O)C(=C1/C3=CC=CC=C3)/C(=O)C4=CC=C(C)C(=C4N)C5=CC=C6N=C(C)C=CC6=C5 [AMG PERK 44] was run?
**A.** -31.8%

**Q.** How did the efficacy turn out when COCCOC1=CN=C2\C=C/N([C@H](C)C3=NN=C4[N]3C=C(C=C4F)C5=C[N](C)N=C5)C(=O)C2=C1 [AMG-337] was run?
**A.** -4.95%

**Q.** Which efficacy does the source give for C[C@H]1CC[C@H](n2c3cnccc3c3cnc(Nc4ccc5c(n4)CCN(C(=O)CO)C5)nc32)CC1 [AMG-925 (FLX925)] here?
**A.** -21.6%

**Q.** N=C(N)NN.N=C(N)NN.O=S(=O)(O)O [AMINOGUANIDINE HYDROCHLORIDE] was tested. Which efficacy did it give?
**A.** -9.44%

**Q.** How did the efficacy turn out when N#Cc1ccc(Oc2ccc3c(c2)COB3O)cc1 [AN-2728] was run?
**A.** -21.2%

**Q.** Which efficacy does the source give for COCC1(CO)C(=O)C2CCN1CC2 (centres undefined) [APR-246] here?
**A.** -7.36%
